In US8263757B2, “Promiscuous HER-2/Neu CD4 T cell epitopes” (Dendreon Corporation, priority 2006, dated 2012):

What was measured:
[1] = system: T cell clone HER500.23c21; experiment: Epitope mapping of clone HER500.23c21 with individual HER500 15-mer peptides and autologous EBV-LcL (IFNγ ELISA, IL-2 by HT-2 proliferation); assay type: cell-based, human; conditions: each peptide 1 ug/ml; autologous EBV LCL cells as antigen presenting cells
Procedure: FIG. 2. T cell clone HER500.23.21 is specific for Peptide #63 (HERp270-284). The HER-2/neu epitope was mapped for clone HER500.23.21 and specificity was determined using autologous EBV-LcLs and each individual HER500 peptide #1-125 (15 amino acids in length). The assay was set up in 96 well round bottom plates with autologous EBV-LcLs at 2×10^5 cells/well and the T cell clone HER500.23.21 added at 1×10^5 cells/well. Each peptide was used at a final concentration of 1 ug/mL. The assay was incubated at 37° C. with 5% CO2 for 48 hours at which time supernatant was removed to test for cytokine production. (A) IFNγ production by clone HER500.23.21 was measured using ELISA, calculated pg/mL is shown for each HER500 peptide. (B) IL-2 production was measured using HT-2 cell proliferation.
Identification and Characterization of HER-2/neu specific T cell clones. […]
Cytokine Production. […] IL-2 production was measured using the IL-2 dependent line HT-2 (ATCC). […] TdR was added for the final 6 hours of the assay and plates were harvested to glass fiber filter mats and DNA incorporation of the radioisotope, or proliferative response, was determined by counts per minute using a liquid scintillation counter (PerkinElmer Life and Analytical Sciences, Inc. Boston, Mass.). IFNγ production was measured using anti-human IFNγ antibody pairs for ELISA (BD Pharmingen, San Diego, Calif.). […]

[2] = system: T cell clone HER500.23c21; experiment: HLA-DR promiscuity: HERp270-284 presented by EBV-LcL lines homozygous for HLA-DRB1* alleles to HER500.23c21 (IFNγ ELISA); assay type: cell-based, human
Procedure: FIG. 4. HERp270-284 is a promiscuous MHC Class II HER-2/Neu epitope. (A) EBV-LcL lines homozygous for various HLA-DR alleles were tested for their ability to present HERp270-284 to clone HER500.23c21. Antigen-specific IFNγ production by HER500.23c21 was above the upper detection limit of the IFNγ ELISA (4000 pg/mL) with all EBV-LcL lines. […] The assay was set up in 96 well round bottom plates in cRPMI+10% FBS with 2×10^5 EBV-LcL/well and 1×10^5 HER500.23c21 cells/well. Peptides were used at a final concentration of 1 μg/mL. The assay was incubated for 48 hours at 37° C. with 5% CO2. Supernatants were harvested, frozen at −20° C. and then analyzed for IFNγ by ELISA. Results are shown for one representative experiment. (B) HERp270-284 was titrated with each EBV LcL line to determine the sensitivity of HER500.23c21 to different alleles. The assay was set up as in (A) except HERp270-284 concentrations are: 10 ng/mL, 33 ng/mL, 66 ng/mL, 100 ng/mL and 250 ng/mL. […] Results are shown for one representative experiment.
Cytokine Production. To determine cytokine production in the antigen specific stimulation assays, after 48 hours, 200 μL of supernatant was pulled from cultures and tested for both IL-2 and IFNγ production. IL-2 production was measured using the IL-2 dependent line HT-2 (ATCC). HT-2 cells were grown in IMDM with 10% FBS and 100 uM NEAA, 1 mM Sodium Pyruvate, 2 mM L-glutamine, […], 50 U/mL Streptomycin, 20 mM HEPES and 20 uM 2-Mercaptoethanol (cIMDM+10% FBS) and fed twice a week with 20 ng/mL rIL-2. For the assay, 4 days after HT-2 cells were split, cells were washed with IMDM+10% FBS to remove all rIL-2, and cells were added to 96 well round bottom plates at 1×10^4 cells/well in cIMDM+10% FBS. Supernatants from antigen specific stimulation were added to wells and plates were incubated 24-30 hours at 37° C. The following day 1 μCi of ^3[H] TdR was added for the final 6 hours of the assay and plates were harvested to glass fiber filter mats and DNA incorporation of the radioisotope, or proliferative response, was determined by counts per minute using a liquid scintillation counter (PerkinElmer Life and Analytical Sciences, Inc. Boston, Mass.). IFNγ production was measured using anti-human IFNγ antibody pairs for ELISA (BD Pharmingen, San Diego, Calif.). Briefly, Immulon 4 plates (Thermo Labsystems/VWR, Brisbane, Calif.) were coated overnight with purified anti-human IFNγ antibody (NIB42) at 3 μg/mL. The next day coating antibody was discarded and 4% Bovine Serum Albumin (BSA) (Sigma, St. Louis, Mo.) in PBS (Invitrogen) was added to wells and plates were incubated for 2 hours at 37° C. Plates were washed with PBS+0.05% Tween 20 and 100 μL of supernatant samples from the antigen specific stimulation was added to wells and incubated at room temperature for 1.25-2 hours. Plates were washed and biotinylated anti-human IFNγ antibody (4S.B3) was diluted in 1% BSA in PBS (1 μg/mL) and added to plates for 1 hour at room temperature. After washing plates, Strep-Avidin HRP (BD Pharmingen) was diluted 1:1000 in PBST and added to wells for 30 minutes at room temperature. Finally, plates were washed and Sigma® Fast OPD was added for 15 minutes in the dark. 2M HCl was added to stop the reaction and plates were read for absorbance at 492 nm on a spectrophotometer.
HLA-DR Restriction and Promiscuity. To determine HLA-DR restriction of the T cell epitope HERp270-284, anti-HLA-DR mAb L243, HLA-DQ mAb 1a3 or HLA-DP mAb B7/21 (20-1.25 μg/mL) were cultured with T cell clone HER.23c21, peptide HERp270-284 and autologous EBV-LcL in cRPMI+10% FBS media. Supernatants were harvested after 48 hours and tested for IL-2 and IFNγ production. HERp270-284 was also tested for HLA-DR promiscuity using EBV-LcL lines purchased from the European Collection of Cell Cultures originating from the 12th International Histocompatibility Workshop (IHW) held in Strasbourg, France. […]

## ALVTYNTDTFESMPN (HER-2/Neu peptide 270-284, HER500 peptide #63, HERp270-284, HER-2/Neu epitope 270-284, residues 3-17 of SEQ ID NO1) [Peptide 63]
[1]
  response of HER500.23c21 measured by IFNγ or IL2 production: responded to only one individual peptide
[2]; 1 ug/ml peptide
  T cell response induced, regardless of the EBV-LCL line used: maximal T cell response
[2]; all HERp270-284 concentrations above 250 ng/mL, each EBV LcL line
  IFNγ production by HER500.23c21 (ELISA), peptide titration: > 4000 pg/mL
[2]; allele DRB1*0401
  lowest peptide concentration able to stimulate Her500.23c21: 10 ng/mL
[2]; allele DRB1*1103
  peptide concentration below which allele was unable to stimulate Her500.23c21: ≥ 250 ng/mL
[2]; panel of 25 EBV LcL lines homozygous for different HLA-DRB1* alleles, 13 DR serological families
  number of HLA-DRB1* alleles for which the epitope is promiscuous (presented to HER500.23c21): at least 25
[2]; peptide 1 μg/mL, all EBV-LcL lines, 48 hours, upper detection limit 4000 pg/mL
  Antigen-specific IFNγ production by HER500.23c21 (ELISA): > 4000 pg/mL
